Consider four compounds from US7432341B2, “Cytokine receptor modulators and method of modulating cytokine receptor activity” (Valo HSJ, Limited Partnership, priority 2002, dated 2008).

Non-standard residues stand in square brackets, D forms with d. Residues, ends and D or L forms follow the SMILES beside them. No end group written: not given here.

One assay relates to VEGFR2 (Flk-1). The assay can be described thus: VEGF induced proliferation in microvascular endothelial cells, incorporated tritiated thymidine method. It is filed as cell-based, porcine. The settings on record: VEGF 2 ng/ml; peptides 10 μM (FIG. 2 panel A). The method, then: (§1) FIG. 2 graphically illustrates in panel A results of proliferation assay in porcine microvascular endothelial cells in presence of VEGF (2 ng/ml) and peptides 2.1, 2.2, 2.3 (10 μM). In panel B are graphically illustrated dose-response of peptides in pulmonary arterial endothelial cells (PAEC) in presence of VEGF (2 ng/ml) and increasing doses of peptides. In panel C is graphically illustrated the effect of intravitreally injected peptides (10 μM [estimated final intraocular concentration]) of the present invention on neovascularization in rat retinas exposed to hyperoxic conditions;
To determine the efficient and non cytotoxic concentration of VEGF to use in the assay, a dose-response curve of VEGF was generated in two types of cells, namely microvascular endothelial cells and pulmonary artery endothelial cells (PAEC) that had been transfected with the Flk-1 gene. The proliferation was then measured in those two types of cells in the presence of peptides 2.1, 2.2 and 2.3 and of VEGF (2 ng/ml) pursuant to the incorporated tritiated thymidine method. The cells were preincubated at 37° C. with the different peptides at different concentrations. They were incubated with VEGF (2 ng/ml) for 24 hours. The cells were contacted with ^3H-Thymidine for 24 hours, washed and lysed. The radioactivity was measured with a scintillation counter.

The next assay deals with T1, VEGFR (Flk-1) (Rattus norvegicus, UniProt O08775).
T1 construct: from tissue; host or cells: rat pup retina (in vivo, intravitreal injection)
T1 sequence (O08775 20-1343): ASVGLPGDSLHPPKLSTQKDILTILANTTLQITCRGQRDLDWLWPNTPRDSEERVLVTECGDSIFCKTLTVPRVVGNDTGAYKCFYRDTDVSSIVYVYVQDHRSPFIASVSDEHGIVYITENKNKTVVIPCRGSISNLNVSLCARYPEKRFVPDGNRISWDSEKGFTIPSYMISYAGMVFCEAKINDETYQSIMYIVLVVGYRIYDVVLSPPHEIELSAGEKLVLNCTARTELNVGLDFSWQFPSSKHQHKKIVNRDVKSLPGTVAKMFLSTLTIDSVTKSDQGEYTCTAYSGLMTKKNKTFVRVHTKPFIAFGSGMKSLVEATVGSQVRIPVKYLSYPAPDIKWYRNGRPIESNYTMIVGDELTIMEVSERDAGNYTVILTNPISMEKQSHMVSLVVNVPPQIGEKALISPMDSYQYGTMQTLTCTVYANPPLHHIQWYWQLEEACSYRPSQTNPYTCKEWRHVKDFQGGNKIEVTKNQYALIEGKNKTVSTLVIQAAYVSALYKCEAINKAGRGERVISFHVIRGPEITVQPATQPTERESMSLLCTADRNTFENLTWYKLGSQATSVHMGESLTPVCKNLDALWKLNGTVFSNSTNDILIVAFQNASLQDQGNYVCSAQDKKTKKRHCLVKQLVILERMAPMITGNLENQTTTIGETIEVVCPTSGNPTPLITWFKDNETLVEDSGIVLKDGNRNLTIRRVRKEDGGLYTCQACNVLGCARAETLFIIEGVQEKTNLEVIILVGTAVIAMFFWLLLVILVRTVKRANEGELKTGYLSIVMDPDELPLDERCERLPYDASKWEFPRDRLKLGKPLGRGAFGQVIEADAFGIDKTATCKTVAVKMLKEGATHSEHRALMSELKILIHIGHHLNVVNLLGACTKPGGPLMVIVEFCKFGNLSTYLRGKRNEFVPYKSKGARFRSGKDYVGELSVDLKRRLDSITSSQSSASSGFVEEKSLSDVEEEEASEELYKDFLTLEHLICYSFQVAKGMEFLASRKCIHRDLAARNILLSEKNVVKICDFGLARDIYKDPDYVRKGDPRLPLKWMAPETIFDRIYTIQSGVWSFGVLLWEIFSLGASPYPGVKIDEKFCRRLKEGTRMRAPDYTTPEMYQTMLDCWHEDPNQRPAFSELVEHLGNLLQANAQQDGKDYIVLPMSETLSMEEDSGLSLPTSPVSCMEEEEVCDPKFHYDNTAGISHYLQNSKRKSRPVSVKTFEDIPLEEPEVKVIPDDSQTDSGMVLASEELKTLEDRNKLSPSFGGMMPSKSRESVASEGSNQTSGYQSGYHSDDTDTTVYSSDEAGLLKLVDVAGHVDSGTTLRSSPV
Nature of the assay: Ischemic retinopathy model, neovascularization in rat retinas exposed to hyperoxic conditions. In kind it is in vivo. As to conditions: rat pups, 80% O2 then normoxia; peptides 10 μM final concentration in the vitreous body. As to the method: as §1
The efficiency of the selected peptides was verified in vivo in a ischemic retinopathy model, a phenomena highly dependant on VEGF activation. Rat pups were exposed to 80% O2 followed by a period of normoxia (21% O2). The peptides were injected at a final concentration of 10 μM in the vitreous body. The retinas were then retrieved, colored with the ADPase method and mounted on slides. Photographs of the retinas were taken with a microscope linked to a computer and the vascular density was evaluated with the Image prosoftware.

Assay [1] has as its target T2, IL-1R/IL-1RacP (Homo sapiens, UniProt Q9NPH3).
T2 construct: endogenous in cells; host or cells: A549 carcinoma cells
T2 sequence (Q9NPH3 21-570): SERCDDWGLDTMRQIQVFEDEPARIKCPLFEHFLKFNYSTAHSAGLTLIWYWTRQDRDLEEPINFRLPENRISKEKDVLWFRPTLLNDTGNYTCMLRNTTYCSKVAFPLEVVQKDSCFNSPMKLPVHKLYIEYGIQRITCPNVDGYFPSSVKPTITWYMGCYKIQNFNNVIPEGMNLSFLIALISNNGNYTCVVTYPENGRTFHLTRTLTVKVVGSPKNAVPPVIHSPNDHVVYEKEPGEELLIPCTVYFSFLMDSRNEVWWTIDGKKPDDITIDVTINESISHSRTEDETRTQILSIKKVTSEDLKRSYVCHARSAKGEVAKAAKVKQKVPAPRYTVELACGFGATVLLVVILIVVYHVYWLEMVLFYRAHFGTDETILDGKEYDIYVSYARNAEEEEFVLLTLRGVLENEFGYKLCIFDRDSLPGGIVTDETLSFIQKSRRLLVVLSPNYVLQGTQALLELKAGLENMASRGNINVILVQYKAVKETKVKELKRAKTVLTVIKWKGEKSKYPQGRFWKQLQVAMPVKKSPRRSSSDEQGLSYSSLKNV
Nature of the assay: IL-1 induced proliferation in A549 carcinoma cells, tritiated thymidine method. In kind it is cell-based. As to conditions: IL-1 10 ng/ml or 1 ng/ml; peptides 10^−6 to 10^−4 M. The method, then:
FIG. 9 graphically illustrates results of proliferation assays in carcinome A549 cells in presence of IL-1 (10 ng/ml-Panel A) (1 ng/ml-Panel B) and various concentrations of the peptides API-101, API-103 and API-106;
The proliferation effect of IL-1 was measured in A549 carcinoma cells in the presence of peptides API101; API103 and API106 and of IL-1 (10 ng/ml-Panel A) and (1 ng/ml-Panel B) pursuant to the incorporated tritiated thymidine method. The cells were preincubated at 37° C. with the different peptides at different concentrations, namely 10^−6, 10^−5 and 10^−4 M. They were then incubated with IL-1 (10 ng/ml or 1 ng/ml) for 24 hours. The cells were then contacted with ^3H-Thymidine for 24 hours, washed and lysed. The radioactivity was then measured with a scintillation counter. The sequences of the peptides antagonists used are as follows: API-101 […], API-103 […]; and API-106 […]. They generally correspond to the subfragment peptides having sequences SEQ ID NO: 50, NO: 52 and NO: 53, respectively except where the subfragment peptide contained an isoleucine. In that case, this isoleucine was replaced by a conservative leucine in the synthesized peptide for economic reasons.

For assay [2], the system named is IL-1R/IL-1RacP. Nature of the assay: Vasomotricity of piglet pial vessels, IL-1β induced vasodilatation. As to conditions: IL-1β 75 ng/ml; U46619 10^−7M preconstriction; peptide 10^−10 to 10^−5 M; data not shown; read-out: IC50, prevention of vasodilation induced by IL-1β in piglet pial vessels. The method, then: In another experiment, vasomotricity variation of piglets pial vessels was studied to further evaluate the particular effect of cytokine receptor subfragments on the vasodilatator effect of IL-1β. Brains were dissected from Yorkshire piglets. Slices of brain exposing the pial vessels were pinned to a wax base of a 20 ml bath containing Krebs buffer (pH 7.4) equilibrated with 95% O2-5% CO2 and maintained at 37° C. Microvessels were visualized and recorded using a video camera mounted on a dissecting microscope. Vascular diameter was measured using a digital image analyzer and the images were recorded before and after topical application of constricting agent U46619 at 10^−7M. After stabilization of the vasomotricity, IL-1β was added until stabilization of vasodilatation. Peptides were then injected at different concentrations from 10^−10 to 10^−5M. Reversal of vasodilatation (i.e. vasoconstriction) was visualized and measured as previously mentioned. IL-1β induced vasodilatation in the microvasculature of the piglet brain was observed. […] The range of concentrations of the peptide administered was from 10^−10 to 10^−5 M.

In the case of `CC[C@@H](C)[C@@H](NC(=O)[C@@H](CCC(=O)O)NC(=O)[C@@H](CC(C)C)NC(=O)[C@@H](CC(N)=O)NC(=O)[C@H](NC(=O)[C@@H](CCCCN)NC(=O)[C@@H](CCC(=O)O)NC(=O)[C@@H](CCC(N)=O)NC(=O)[C@@H](C)N)[C@H](C)O)C(=O)N[C@@H](C(=O)N[C@@H](C(=O)N[C@H](CC(C)C)C(=O)N[C@@H](C(=O)NCC(=O)O)C(C)C)[C@H](C)CC)[C@H](C)CC` [2.1] (H-[dA][dQ][dE][dK][dT][dN][dL][dE][dI][dI][dI][dL][dV]G-OH; N-terminus and C-terminus assumed), the “VEGF induced proliferation in microvascular endothelial cells” value in the assay on VEGFR2 (Flk-1) is “completely abrogated”.
For the compound `CC(C)C[C@@H](NC(=O)[C@@H](CCCNC(=N)N)NC(=O)[C@H](NC(=O)[C@@H](CCCNC(=N)N)NC(=O)[C@@H](CCC(=O)O)NC(=O)CNC(=O)[C@H](NC(=O)[C@H](NC(=O)[C@@H](C)NC(=O)[C@H](N)CCC(=O)O)[C@H](C)O)C(C)C)C(C)C)C(=O)O` [2.2] (H-[dE][dA][dT][dV]G[dE][dR][dV][dR][dL]-OH; N-terminus and C-terminus assumed), the “VEGF induced proliferation in microvascular endothelial cells” value with VEGFR2 (Flk-1) is “completely abrogated”. Besides, the “induced neovascularization in vivo (vascular density of retina)” value on VEGFR (Flk-1) is listed as “most effective inhibitor of neovascularization”.
With APRYTVELA [API-101], a half-maximal response on IL-1R/IL-1RacP [1] (EC50) required 1000 nM. The IC50 (as a rule, the point on the concentration scale where inhibition reaches its midpoint) in the assay on IL-1R/IL-1RacP [2] amounted to 182 nM.
Regarding MKLPVHKLY [API-103], the midpoint of the response at IL-1R/IL-1RacP [1], the EC50, lay at 1000 nM. This counts as single-digit micromolar.
